Results taken from US10059717B2, “Urea compounds containing 3,4-dihydropyrimido[4,5-D]pyrimidin-2(1H)-one skeleton as protein kinase inhibitors” (KOREA INSTITUTE OF SCIENCE AND TECHNOLOGY, priority 2016, dated 2018).

Legend:
Assay in all cases: Kinase panel biochemical assay
Details in all cases: 1 μM single concentration, read-out: % residual enzyme activity
[1] = target: TAOK3/JIK (Homo sapiens, UniProt Q9H2K8)
Protocol: (§1) In order to measure the protein kinase inhibitory activity (% inhibition) of the compounds of the present invention, biochemical assays were performed on the full kinase panel listed in the following Table 1.
(§2) As an test compound, 1-(3-(7-((6-(4-ethylpiperazine-1-carbonyl)pyridin-3-yl)amino)-1-methyl-2-oxo-1,4-dihydropyrimido[4,5-d]pyrimidin-3(2H)-yl)-4-methylphenyl)-3-(2-methoxyphenyl)urea (Compound No. 14) was used. The kinase inhibitory efficacy was measured upon treatment with a 1 μM single concentration of the test compound to calculate % residual enzyme activity value.
(§3) ABL1, FGFR2, TAOK2/TAO1, EPHA5, EPHB2, EPHB3, RET, LYN B, EPHA2, FRK/PTK5, EPHA8, LCK, EPHB4, FYN, KHS/MAP4K5, DDR1, EPHA3, P38a/MAPK14, EPHA4, FMS, EPHB1, HCK, FGFR1, ABL2/ARG, EPHA6, c-Src, ACK1, FLT4NEGFR3, ERBB4/HER4, DDR2, KDRNEGFR2, LYN, ZAK/MLTK, YES/YES1, BLK, FGR, MLCK2/MYLK2, TAOK1, BMX/ETK, BTK, EPHA1, JAK1, P38b/MAPK11, TIE2/TEK, FLT1NEGFR1, TXK, SRMS, RAF1, SIK1, MLK3/MAP3K11, PEAK1, TRKA, EPHA7, GLK/MAP4K3, MLK2/MAP3K10, TEC, CSK, TRKC, FES/FPS, SIK2, FGFR3, BRK, YSK4/MAP3K19, ARAF, PDGFRb, TNK1, GCK/MAP4K2, PDGFRa, TNIK, TAK1, ERBB2/HER2, LIMK1, HIPK4, FER, EGFR, JAK2, HPK1/MAP4K1, TRKB, RIPK3, LOK/STK10, LIMK2, MLK1/MAP3K9, BRAF, MEKK3, MEK5, STK32B/YANK2, FGFR4, MEKK2, SLK/STK2, FLT3, PKAcg, TAOK3/JIK, TYRO3/SKY, SIK3, IR, LRRK2, PYK2, NEK11, p70S6K/RPS6KB1, LATS2.

[2] = target: TAK1 (Homo sapiens, UniProt O43318)
Protocol: as §1, §2, §3

[3] = target: TIE2/TEK (Homo sapiens, UniProt Q02763)
Protocol: as §1, §2, §3

[4] = target: YES/YES1 (Homo sapiens, UniProt P07947)
Protocol: as §1, §2, §3

[5] = target: FLT3 (Homo sapiens, UniProt P36888)
Protocol: as §1, §2, §3

[6] = target: PKAcg (Homo sapiens, UniProt P22612)
Protocol: as §1, §2, §3

[7] = target: p70S6K/RPS6KB1 (Homo sapiens, UniProt P23443)
Protocol: as §1, §2, §3

[8] = target: HIPK4 (Homo sapiens, UniProt Q8NE63)
Protocol: as §1, §2, §3

[9] = target: EPHA3 (Homo sapiens, UniProt P29320)
Protocol: as §1, §2, §3

[10] = target: FRK/PTK5 (Homo sapiens, UniProt P42685)
Protocol: as §1, §2, §3

[11] = target: JAK1 (Homo sapiens, UniProt P23458)
Protocol: as §1, §2, §3

[12] = target: EPHA2 (Homo sapiens, UniProt P29317)
Protocol: as §1, §2, §3

[13] = target: EPHB1 (Homo sapiens, UniProt P54762)
Protocol: as §1, §2, §3

[14] = target: STK32B/YANK2 (Homo sapiens, UniProt Q9NY57)
Protocol: as §1, §2, §3

[15] = target: DDR1 (Homo sapiens, UniProt Q08345)
Protocol: as §1, §2, §3

[16] = target: MLCK2/MYLK2 (Homo sapiens, UniProt Q9H1R3)
Protocol: as §1, §2, §3

[17] = target: EGFR (Homo sapiens, UniProt P00533)
Protocol: as §1, §2, §3

[18] = target: GLK/MAP4K3 (Homo sapiens, UniProt Q8IVH8)
Protocol: as §1, §2, §3

[19] = target: LYN B (Homo sapiens, UniProt P07948)
Protocol: as §1, §2, §3

[20] = target: LOK/STK10 (Homo sapiens, UniProt O94804)
Protocol: as §1, §2, §3

[21] = target: MLK1/MAP3K9 (Homo sapiens, UniProt P80192)
Protocol: as §1, §2, §3

[22] = target: SIK3 (Homo sapiens, UniProt Q9Y2K2)
Protocol: as §1, §2, §3

[23] = target: FGFR1 (Homo sapiens, UniProt P11362)
Protocol: as §1, §2, §3

[24] = target: HPK1/MAP4K1 (Homo sapiens, UniProt Q92918)
Protocol: as §1, §2, §3

[25] = target: NEK11 (Homo sapiens, UniProt Q8NG66)
Protocol: as §1, §2, §3

[26] = target: ZAK/MLTK (Homo sapiens, UniProt Q9NYL2)
Protocol: as §1, §2, §3

[27] = target: ERBB2/HER2 (Homo sapiens, UniProt P04626)
Protocol: as §1, §2, §3

[28] = target: FGFR4 (Homo sapiens, UniProt P22455)
Protocol: as §1, §2, §3

[29] = target: MEKK2 (Homo sapiens, UniProt Q9Y2U5)
Protocol: as §1, §2, §3

[30] = target: TXK (Homo sapiens, UniProt P42681)
Protocol: as §1, §2, §3

Measured: remaining activity at 1 µM

Sequence of EPHA2 (P29317 24-976): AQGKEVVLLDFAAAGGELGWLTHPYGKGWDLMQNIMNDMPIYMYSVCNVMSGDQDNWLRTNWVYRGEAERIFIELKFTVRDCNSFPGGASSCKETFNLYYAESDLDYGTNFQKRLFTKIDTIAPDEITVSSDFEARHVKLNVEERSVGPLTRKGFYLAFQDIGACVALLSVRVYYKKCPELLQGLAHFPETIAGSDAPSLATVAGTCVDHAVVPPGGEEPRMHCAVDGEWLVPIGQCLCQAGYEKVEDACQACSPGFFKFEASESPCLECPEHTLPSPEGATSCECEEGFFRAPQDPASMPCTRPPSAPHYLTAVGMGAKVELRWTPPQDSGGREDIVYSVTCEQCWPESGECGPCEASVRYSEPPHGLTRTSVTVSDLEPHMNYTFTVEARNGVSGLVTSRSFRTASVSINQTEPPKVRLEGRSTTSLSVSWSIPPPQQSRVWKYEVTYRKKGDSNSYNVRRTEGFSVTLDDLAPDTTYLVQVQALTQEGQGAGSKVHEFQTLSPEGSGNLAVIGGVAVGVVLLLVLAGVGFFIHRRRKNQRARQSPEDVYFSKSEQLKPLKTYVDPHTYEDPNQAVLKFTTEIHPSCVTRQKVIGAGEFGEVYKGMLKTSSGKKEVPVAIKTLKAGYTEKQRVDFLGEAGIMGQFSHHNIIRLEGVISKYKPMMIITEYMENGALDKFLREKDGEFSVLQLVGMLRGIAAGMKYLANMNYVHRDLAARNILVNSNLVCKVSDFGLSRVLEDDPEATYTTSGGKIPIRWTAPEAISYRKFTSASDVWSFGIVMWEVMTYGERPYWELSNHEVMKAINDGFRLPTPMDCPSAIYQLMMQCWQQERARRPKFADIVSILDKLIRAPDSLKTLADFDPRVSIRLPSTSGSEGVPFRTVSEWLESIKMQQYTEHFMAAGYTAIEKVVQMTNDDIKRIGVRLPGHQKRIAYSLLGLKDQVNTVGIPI
Sequence of HPK1/MAP4K1 (Q92918 whole entry): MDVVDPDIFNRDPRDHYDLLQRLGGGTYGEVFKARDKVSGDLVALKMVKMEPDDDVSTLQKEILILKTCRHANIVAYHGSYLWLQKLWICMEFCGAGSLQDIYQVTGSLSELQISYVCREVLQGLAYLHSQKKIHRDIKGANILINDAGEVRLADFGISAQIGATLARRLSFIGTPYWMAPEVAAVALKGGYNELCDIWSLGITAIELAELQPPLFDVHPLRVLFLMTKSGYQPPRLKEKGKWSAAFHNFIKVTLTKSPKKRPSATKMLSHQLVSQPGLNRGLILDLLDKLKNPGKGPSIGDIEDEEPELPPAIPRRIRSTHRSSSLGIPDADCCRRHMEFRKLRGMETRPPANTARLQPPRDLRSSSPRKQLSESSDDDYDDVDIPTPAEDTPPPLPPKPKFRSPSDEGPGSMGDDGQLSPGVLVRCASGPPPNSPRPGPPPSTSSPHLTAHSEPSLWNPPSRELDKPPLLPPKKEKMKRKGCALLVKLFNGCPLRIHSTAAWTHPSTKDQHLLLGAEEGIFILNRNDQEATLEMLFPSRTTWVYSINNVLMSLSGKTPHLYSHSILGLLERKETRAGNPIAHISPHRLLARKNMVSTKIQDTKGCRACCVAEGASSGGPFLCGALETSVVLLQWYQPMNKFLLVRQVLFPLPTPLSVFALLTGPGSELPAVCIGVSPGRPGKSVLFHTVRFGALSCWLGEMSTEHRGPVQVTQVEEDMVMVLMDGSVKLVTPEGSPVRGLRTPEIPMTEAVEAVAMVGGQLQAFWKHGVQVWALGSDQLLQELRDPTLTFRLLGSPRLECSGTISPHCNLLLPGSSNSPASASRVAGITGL
Sequence of YES/YES1 (P07947 whole entry): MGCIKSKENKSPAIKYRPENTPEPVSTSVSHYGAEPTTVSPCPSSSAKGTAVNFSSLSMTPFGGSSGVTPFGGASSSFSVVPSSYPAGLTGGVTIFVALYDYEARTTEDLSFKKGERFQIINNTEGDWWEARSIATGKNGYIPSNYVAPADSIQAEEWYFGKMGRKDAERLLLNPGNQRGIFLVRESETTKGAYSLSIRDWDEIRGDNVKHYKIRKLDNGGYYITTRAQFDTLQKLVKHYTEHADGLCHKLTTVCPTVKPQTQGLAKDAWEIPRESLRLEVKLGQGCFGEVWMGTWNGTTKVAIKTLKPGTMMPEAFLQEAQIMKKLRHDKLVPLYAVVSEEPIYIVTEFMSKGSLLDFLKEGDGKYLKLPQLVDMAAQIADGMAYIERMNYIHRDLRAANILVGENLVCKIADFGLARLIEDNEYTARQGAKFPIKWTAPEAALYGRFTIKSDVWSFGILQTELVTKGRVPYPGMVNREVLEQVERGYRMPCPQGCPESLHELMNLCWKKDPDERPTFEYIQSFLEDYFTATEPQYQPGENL
Sequence of LYN B (P07948 1-491 isoform P07948-2): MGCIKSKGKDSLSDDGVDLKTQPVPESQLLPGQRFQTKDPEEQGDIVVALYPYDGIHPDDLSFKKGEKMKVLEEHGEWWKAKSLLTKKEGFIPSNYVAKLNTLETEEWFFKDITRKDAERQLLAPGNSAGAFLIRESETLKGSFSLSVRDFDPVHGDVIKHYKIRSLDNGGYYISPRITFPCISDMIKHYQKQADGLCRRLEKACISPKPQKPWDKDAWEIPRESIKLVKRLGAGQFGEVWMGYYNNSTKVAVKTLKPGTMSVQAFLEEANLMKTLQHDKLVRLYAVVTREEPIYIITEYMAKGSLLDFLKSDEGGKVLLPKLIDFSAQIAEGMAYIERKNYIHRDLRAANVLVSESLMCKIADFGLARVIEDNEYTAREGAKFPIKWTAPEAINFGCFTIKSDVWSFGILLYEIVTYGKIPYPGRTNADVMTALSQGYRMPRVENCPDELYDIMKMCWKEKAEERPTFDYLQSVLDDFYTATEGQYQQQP
Sequence of STK32B/YANK2 (Q9NY57 whole entry): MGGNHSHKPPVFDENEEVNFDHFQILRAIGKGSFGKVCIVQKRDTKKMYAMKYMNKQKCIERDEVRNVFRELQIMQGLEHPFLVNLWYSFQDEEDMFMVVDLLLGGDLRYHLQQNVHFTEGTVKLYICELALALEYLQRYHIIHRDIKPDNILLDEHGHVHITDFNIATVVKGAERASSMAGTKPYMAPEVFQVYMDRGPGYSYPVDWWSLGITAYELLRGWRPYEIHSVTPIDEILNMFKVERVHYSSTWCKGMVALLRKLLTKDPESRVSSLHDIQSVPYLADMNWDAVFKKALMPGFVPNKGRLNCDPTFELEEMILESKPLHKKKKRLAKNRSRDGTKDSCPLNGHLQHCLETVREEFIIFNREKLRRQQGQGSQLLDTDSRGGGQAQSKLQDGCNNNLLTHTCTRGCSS
Sequence of GLK/MAP4K3 (Q8IVH8 whole entry): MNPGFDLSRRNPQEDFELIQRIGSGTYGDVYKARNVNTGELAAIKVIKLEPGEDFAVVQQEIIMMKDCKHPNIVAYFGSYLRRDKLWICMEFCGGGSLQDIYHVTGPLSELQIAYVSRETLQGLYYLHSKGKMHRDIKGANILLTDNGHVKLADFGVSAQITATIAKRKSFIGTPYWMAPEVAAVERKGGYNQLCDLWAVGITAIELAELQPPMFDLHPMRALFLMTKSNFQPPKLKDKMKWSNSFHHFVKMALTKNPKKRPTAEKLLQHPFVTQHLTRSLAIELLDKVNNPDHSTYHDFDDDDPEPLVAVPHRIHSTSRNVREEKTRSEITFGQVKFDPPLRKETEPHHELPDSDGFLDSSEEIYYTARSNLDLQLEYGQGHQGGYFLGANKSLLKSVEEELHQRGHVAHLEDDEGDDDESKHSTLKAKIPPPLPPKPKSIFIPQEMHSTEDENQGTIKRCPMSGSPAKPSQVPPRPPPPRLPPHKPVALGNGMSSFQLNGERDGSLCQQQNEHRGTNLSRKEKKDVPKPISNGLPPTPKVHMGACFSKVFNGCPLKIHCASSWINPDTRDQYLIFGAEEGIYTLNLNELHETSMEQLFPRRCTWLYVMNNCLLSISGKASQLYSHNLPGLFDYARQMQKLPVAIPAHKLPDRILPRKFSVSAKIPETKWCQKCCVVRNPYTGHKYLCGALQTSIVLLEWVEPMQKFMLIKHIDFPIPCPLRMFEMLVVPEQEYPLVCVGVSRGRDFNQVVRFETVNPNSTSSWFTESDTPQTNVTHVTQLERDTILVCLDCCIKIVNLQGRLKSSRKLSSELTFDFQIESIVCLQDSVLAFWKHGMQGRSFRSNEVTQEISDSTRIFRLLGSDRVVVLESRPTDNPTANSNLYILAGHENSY
Sequence of TAOK3/JIK (Q9H2K8 whole entry): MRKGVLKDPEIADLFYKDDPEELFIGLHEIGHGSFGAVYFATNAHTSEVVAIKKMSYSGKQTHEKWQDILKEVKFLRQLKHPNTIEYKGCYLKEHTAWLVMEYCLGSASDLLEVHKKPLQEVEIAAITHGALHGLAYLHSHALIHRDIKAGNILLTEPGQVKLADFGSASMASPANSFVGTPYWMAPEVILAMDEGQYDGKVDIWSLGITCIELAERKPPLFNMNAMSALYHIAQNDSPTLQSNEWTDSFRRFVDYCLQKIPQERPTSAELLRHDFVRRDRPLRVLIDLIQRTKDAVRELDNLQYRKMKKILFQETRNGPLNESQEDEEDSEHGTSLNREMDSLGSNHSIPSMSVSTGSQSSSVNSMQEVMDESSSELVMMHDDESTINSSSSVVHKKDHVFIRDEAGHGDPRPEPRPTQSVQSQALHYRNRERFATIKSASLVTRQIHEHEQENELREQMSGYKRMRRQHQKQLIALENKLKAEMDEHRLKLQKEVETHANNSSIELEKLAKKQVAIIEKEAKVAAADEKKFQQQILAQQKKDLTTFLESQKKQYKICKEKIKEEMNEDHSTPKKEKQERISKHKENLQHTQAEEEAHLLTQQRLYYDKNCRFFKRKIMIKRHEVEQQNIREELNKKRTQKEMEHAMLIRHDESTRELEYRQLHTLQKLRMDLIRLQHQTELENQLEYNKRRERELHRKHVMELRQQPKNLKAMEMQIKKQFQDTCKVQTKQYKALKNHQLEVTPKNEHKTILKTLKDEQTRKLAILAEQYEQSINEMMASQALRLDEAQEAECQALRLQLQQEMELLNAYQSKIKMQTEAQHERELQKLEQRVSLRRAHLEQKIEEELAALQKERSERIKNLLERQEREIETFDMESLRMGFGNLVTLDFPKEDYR

CCN1CCN(C(=O)c2ccc(Nc3ncc4c(n3)N(C)C(=O)N(c3cc(NC(=O)Nc5ccccc5OC)ccc3C)C4)cn2)CC1 [Compound No. 14, 1-(3-(7-((6-(4-ethylpiperazin-1-carbonyl)pyridin-3-yl)amino)-1-methyl-2-oxo-1,4-dihydropyrimido[4,5-d]pyrimidin-3(2H)-yl)-4-methylphenyl)-3-(2-methoxyphenyl)urea]
≤ 30%: all assays above
